The values below come from patent publication US20030004187A1, “Method for preventing dyskinesias” (priority 2001, published 2003).

Data set [1] has as its system 6-OHDA-lesioned hemiparkinsonian rat model. The note with it: cited from earlier work.
Data set [2] has as its system MPTP monkey. Put plainly: Delay and duration of L-Dopa response. It is filed as in vivo, cynomolgus (Macaca fascicularis) monkeys. Conditions: for Delay of L-Dopa response / Duration of L-Dopa response: mean ± SEM. Set-up: Delay of L-Dopa response / Duration of L-Dopa response: unit not given here.
Data set [3] concerns MPTP-treated monkeys. Conditions: 3 to 30 mg/kg, cited from earlier work.
The test system of data set [4] is MPTP monkey. In words: Induction of L-Dopa-induced dyskinesias in de novo MPTP parkinsonian monkeys (dyskinetic score). It counts as in vivo, cynomolgus (Macaca fascicularis) monkeys. Conditions: for Dyskinesia induction (in words): 4 weeks treatment, L-Dopa/benserazide 100/25 mg alone or plus CI-1041 10 mg/kg per os, FIG. 1.
Data set [5] relates to MPTP monkey. Put plainly: Side effects and stereotypies observed during 1-month treatment. The note with it: CI-1041 10 mg/kg per os with L-Dopa. The method, then: The experiments were performed in accordance with the standards of the Canadian Council on Animal care using eight female cynomolgus (Macaca fascicularis) monkeys weighing 3.0 to 3.5 kg. They were housed separately in individual observation cages equipped with an electronic motility monitoring system (Datascience, St. Paul, Minnesota) in a temperature-controlled room and exposed to a 12-hour light/dark cycle (lights on 6 AM-6 PM). They were fed once daily in the afternoon (certified primate chow and fruits), and water was provided ad libitum. […] The animals were scored several times a week using a disability scale described below, where the normal state extends from 0 to 2, and maximal disability is 16 points. […]
The severity of dyskinesias was also rated every 30 minutes for each body segment: the face, neck, trunk, arms, and legs in the following way: None=0; Mild=1; Moderate=2; Severe=3. The difference between mild, moderate, and severe dyskinesias for a given body segment is based on the assessment of the amplitude of the abnormal movements and the frequency (whether they are occasional, intermittent, or constant); each body segment being scored separately based on assessment of observation in the preceding half hour. […]

Data set [6] addresses NR1A/2B cloned NMDA receptors (Homo sapiens, UniProt Q05586+Q13224). Conditions: cited from earlier work.
Data set [7] has as its system MPTP monkey. Put plainly: Locomotor activity by electronic motility monitoring system. It counts as in vivo, cynomolgus (Macaca fascicularis) monkeys. The note with it: FIG. 2B; maintained during the 4 weeks.
Data set [8] concerns PD patients. The note with it: cited from earlier work.
The test system of data set [9] is MPTP monkey. Put plainly: Antiparkinsonian response, disability scale for MPTP monkey (parkinsonian score). It is filed as in vivo, cynomolgus (Macaca fascicularis) monkeys.
In data set [10] the test system is 6-OHDA-lesioned rats. Conditions: systemic administration; cited from earlier work.
Data set [11] has as its system PD patients. Conditions: published observation in PD patients; cited from earlier work.

Where “and” joins values, the source holds several entries; their conditions need not be identical. Identical values can stand only once.

NR1A/2B cloned NMDA receptors, sequence (Q13224 27-1484, other chains not shown): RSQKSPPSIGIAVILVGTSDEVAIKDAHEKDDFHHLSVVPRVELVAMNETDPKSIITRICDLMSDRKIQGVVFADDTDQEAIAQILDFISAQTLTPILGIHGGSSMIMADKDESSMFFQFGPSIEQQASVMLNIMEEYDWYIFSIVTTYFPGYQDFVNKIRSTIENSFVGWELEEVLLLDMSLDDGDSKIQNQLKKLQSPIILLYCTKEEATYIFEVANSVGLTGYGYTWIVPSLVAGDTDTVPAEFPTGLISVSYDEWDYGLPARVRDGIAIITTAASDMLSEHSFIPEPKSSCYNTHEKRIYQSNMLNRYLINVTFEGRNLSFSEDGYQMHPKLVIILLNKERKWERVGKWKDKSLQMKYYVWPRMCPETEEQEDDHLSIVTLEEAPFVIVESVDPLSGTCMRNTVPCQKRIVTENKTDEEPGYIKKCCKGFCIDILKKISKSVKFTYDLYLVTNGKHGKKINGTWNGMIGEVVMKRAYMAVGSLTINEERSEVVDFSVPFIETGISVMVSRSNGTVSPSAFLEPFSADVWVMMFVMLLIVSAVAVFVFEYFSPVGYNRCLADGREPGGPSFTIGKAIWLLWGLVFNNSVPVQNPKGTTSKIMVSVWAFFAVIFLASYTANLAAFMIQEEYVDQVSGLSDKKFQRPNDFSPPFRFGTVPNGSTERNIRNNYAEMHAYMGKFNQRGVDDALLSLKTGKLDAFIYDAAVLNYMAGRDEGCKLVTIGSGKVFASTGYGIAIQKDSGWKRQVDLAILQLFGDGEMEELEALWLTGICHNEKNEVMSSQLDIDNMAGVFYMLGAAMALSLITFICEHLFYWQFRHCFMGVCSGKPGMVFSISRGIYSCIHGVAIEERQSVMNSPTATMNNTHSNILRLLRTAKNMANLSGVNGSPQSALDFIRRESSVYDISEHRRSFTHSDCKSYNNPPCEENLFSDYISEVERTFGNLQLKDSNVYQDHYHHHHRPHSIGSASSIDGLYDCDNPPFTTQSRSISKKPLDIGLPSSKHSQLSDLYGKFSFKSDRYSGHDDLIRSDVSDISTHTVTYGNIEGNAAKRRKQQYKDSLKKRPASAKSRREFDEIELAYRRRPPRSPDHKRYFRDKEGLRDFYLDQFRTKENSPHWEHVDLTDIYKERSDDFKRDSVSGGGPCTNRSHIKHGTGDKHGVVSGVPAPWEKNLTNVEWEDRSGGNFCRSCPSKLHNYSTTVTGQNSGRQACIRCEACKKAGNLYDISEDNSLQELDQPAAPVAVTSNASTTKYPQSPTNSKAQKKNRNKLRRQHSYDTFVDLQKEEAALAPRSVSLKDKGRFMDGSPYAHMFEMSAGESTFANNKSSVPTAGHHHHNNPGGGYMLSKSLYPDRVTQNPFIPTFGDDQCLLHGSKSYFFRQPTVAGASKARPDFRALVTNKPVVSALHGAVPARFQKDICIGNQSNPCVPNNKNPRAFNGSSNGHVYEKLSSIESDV

For `O=c1[nH]c2ccc([S+]([O-])CCN3CCC(Cc4ccc(F)cc4)CC3)cc2o1` (centres unmarked) [CI-1041, 6-{2-[4-(4-fluoro-benzyl)-piperidin-1-yl]-ethanesulfinyl}-3H-benzooxazol-2-one], the “Contraversive rotation induced by L-Dopa” value in data set [1] (peak rate and duration increased, maintained following 9 days of repeated co-administration) is on record as “potentiated the contraversive rotation”. Besides, in [1] (rat, in vivo), the “Rotation induced by direct acting dopamine agonists SKF 38393 and quinpirole” value is given as “potentiated rotation”. For the same molecule, in [1] (rat, in vivo), the “Rotation when given alone” value was “increased both contraversive and ipsiversive rotations”. Further, the “Effect of CI-1041 co-administration on delay and duration of the L-Dopa response (in words)” value in data set [2] (trend for delayed response in first 2 weeks) is given as “not significantly affected”. Moreover, in data set [3] (in combination with L-Dopa), the “Alteration in the antiparkinsonian effects of L-Dopa” value is “did not produce a consistent alteration”. In data set [3], the “Antiparkinsonian activity when administered alone” value is given as “did not exhibit any antiparkinsonian activity”. Moreover, the “Dyskinesia induction (in words)” value in [4] (10 mg/kg) is reported as “prevented dyskinesias”; in data set [4] (listed as C-1041) it was “completely prevented the induction of dyskinesias in three animals”. Moreover, the “Side effects / tolerability” value in data set [5] is “well-tolerated and no emesis, ataxia, or hallucinations were observed”. In data set [6] (allosteric modulation site), the “Affinity, block of NR2B-containing NMDA receptors” value is 24 nM. For the same molecule, the “Selectivity for NR1A/2B cloned NMDA receptors” value in data set [6] is reported as more than 1000 fold.

`N[C@@H](Cc1ccc(O)c(O)c1)C(=O)O` [L-Dopa]: the “Locomotion as compared to control (in words)” value in data set [7] is reported as “significant (P<0.01) increase in locomotion”. Moreover, in data set [8] (human, in vivo), the Prevalence of dyskinesias is on record as 30-80%. Also, in data set [9] (FIG. 2A), the “Parkinsonian scores as compared to the control (in words)” value is “significantly (P<0.01) lowered”. Further, the “Antiparkinsonian Efficacy (Min. Score), Mean ± SEM” value in data set [9] (group mean ± SEM, n=4, 28 days treatment) came to 3.3 ± 0.2. For the same molecule, the “Antiparkinsonian Efficacy” value in [9] (individual animal, grade in words, 28 consecutive days of daily oral treatment) is “Good”. Besides, in data set [9] (individual animal, minimum parkinsonian score, maximal disability 16, 28 days treatment), the “Antiparkinsonian Efficacy (Min. Score)” value was 2.8 and 3.7 and 3.4 (2×). Also, the “Delay of L-Dopa response” value in [2] (Day 7) is 47.3 ± 4.4^; in [2] (Day 14), 59.5 ± 17.2; in data set [2] (Day 21), 52.5 ± 10.3^; in data set [2] (Day 28), 50 ± 5.8. Also, the “Duration of L-Dopa response” value in data set [2] (Day 7) was 221.3 ± 46.0^; in data set [2] (Day 14), 189.3 ± 29.5^; in data set [2] (Day 21) it was 222.5 ± 24.6^; in data set [2] (Day 28), 198.75 ± 25.5. Besides, in data set [4], the “Dyskinesia induction (in words)” value is listed as “moderate to severe”. Further, the “Persistent Dyskinesia (Max Score), Mean ± SEM” value in data set [4] (group mean ± SEM, n=4) is 7.1 ± 1.3. Besides, the “Persistent Dyskinesia” value in data set [4] (individual animal, Yes/None, 28 days treatment) was “Yes”. Further, the “Persistent Dyskinesia (Max Score)” value in [4] (individual animal, maximum dyskinetic score, maximal score 21) is 8.5 and 4 and 6 and 10.

Regarding `C[C@]12N[C@H](Cc3ccccc31)c1ccccc12` [MK-801], in [10], the L-Dopa-induced motor fluctuations result was “completely reversed and more interestingly prevented”.

`NC12CC3CC(CC(C3)C1)C2` [amantadine]: in data set [8] (human, in vivo), the “L-Dopa-induced dyskinesias in PD patients” value is on record as “reduced L-Dopa-induced dyskinesias”. The “Maintenance of beneficial effects on motor response complications after treatment initiation” value in data set [8] (one study) was “at least 1 year”.

As to `COc1ccc2c(c1)[C@]13CCCC[C@@H]1[C@H](C2)N(C)CC3` [dextromethorphan], in data set [8] (human, in vivo), the “L-Dopa-induced dyskinesias in PD patients” value is “reduced L-Dopa-induced dyskinesias”.

Turning to `CCCN[C@H]1CCc2nc(N)sc2C1` [pramipexole], the Sleep attacks result in [11] was “episodes of sudden onset of sleep”.

As to `CCCN(CCC)CCc1cccc2c1CC(=O)N2` [ropinirole], the Sleep attacks entry in data set [11] is given as “episodes of sudden onset of sleep”.
